In this experiment the target is T1, PPM1A (protein phosphatase magnesium-dependent 1A; PP2Cα) (Homo sapiens, UniProt P35813).
T1 sequence (P35813 2-382): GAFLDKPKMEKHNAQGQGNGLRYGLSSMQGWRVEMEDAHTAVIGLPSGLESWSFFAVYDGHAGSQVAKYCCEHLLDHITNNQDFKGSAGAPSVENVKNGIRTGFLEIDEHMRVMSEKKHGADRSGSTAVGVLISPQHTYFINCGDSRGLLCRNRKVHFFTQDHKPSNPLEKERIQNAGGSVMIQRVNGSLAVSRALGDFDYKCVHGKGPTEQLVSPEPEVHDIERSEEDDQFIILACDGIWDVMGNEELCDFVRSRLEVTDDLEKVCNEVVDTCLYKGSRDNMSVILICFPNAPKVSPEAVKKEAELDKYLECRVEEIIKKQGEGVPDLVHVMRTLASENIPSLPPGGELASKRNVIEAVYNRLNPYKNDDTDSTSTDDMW
Briefly: microscale thermophoresis. The format is binding.

We go through one molecule from article PMC9650016 (Brain, Behavior, & Immunity - Health, 2022).

Take `CCCCCCCCCCCCCCCCOP(=O)([O-])OCC[N+](C)(C)C` [MF, Miltefosine]: the Kd (commonly the free concentration of one partner at which half of the binding sites on the other are occupied at equilibrium, for simple one-to-one binding) turned out to be 2.69 µM.
